Broadly, the IC50 is the concentration that inhibits the measured activity by half. A low value points to inhibition by little substance. The term CC50 denotes the concentration at which the toxic effect on the cells reaches its halfway point. For orientation: Papp B→A means how fast a substance crosses the layer from the basolateral side. A word on the Papp A→B: it is how fast a substance crosses the layer from the apical side.

The target of data set [1] is T1, NAD-dependent protein deacetylase sirtuin-1 (Homo sapiens, UniProt Q96EB6).
T1 sequence (Q96EB6 whole entry): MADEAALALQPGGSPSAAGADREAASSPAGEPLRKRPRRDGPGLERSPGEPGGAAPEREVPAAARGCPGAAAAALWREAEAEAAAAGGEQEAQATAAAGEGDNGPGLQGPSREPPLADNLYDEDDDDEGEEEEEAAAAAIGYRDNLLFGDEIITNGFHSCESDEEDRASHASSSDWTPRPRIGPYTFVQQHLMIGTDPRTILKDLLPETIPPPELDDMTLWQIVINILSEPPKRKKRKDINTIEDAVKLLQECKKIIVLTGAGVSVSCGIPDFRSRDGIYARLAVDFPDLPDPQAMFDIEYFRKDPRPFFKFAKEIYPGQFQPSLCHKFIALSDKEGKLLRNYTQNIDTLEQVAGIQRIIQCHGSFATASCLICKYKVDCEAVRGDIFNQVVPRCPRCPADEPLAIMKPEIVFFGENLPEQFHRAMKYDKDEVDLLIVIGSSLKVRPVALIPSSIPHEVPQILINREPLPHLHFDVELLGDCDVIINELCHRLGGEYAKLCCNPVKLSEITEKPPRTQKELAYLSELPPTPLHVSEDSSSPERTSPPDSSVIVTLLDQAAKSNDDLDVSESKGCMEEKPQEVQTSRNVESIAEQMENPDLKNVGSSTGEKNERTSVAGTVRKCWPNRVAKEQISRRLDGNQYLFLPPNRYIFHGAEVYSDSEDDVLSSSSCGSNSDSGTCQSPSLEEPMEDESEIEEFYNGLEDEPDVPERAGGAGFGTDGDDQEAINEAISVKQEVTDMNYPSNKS
The experiment in a line: biochemical. In kind it is cell-based, BL21-DE3.
Description: Inhibition of full length human SIRT1 expressed in Escherichia coli BL21 (DE3) cells using fluorogenic 7-amino-4-methylcoumarin (AMC)-labeled peptide by fluorescence assay

For data set [2], the target named is T2, NAD-dependent protein deacetylase sirtuin-2 (Homo sapiens, UniProt Q8IXJ6).
T2 sequence (Q8IXJ6 whole entry): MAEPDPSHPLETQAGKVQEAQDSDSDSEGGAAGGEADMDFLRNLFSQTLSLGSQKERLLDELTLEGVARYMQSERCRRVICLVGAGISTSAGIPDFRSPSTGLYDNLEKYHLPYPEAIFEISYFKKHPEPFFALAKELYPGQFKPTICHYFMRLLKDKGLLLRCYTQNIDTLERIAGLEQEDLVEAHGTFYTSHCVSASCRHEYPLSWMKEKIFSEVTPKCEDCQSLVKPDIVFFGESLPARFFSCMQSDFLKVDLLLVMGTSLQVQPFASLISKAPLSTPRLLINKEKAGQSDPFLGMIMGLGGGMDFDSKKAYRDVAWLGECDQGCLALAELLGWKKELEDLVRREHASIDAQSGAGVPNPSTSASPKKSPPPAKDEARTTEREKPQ
The experiment in a line: Inhibition of full length human SIRT2 expressed in Escherichia coli BL21 (DE3) cells using fluorogenic 7-amino-4-methylcoumarin (AMC)-labeled peptide by fluorescence assay.

The target in data set [3] is T3, NAD-dependent protein deacetylase sirtuin-3, mitochondrial (Homo sapiens, UniProt Q9NTG7).
T3 sequence (Q9NTG7 whole entry): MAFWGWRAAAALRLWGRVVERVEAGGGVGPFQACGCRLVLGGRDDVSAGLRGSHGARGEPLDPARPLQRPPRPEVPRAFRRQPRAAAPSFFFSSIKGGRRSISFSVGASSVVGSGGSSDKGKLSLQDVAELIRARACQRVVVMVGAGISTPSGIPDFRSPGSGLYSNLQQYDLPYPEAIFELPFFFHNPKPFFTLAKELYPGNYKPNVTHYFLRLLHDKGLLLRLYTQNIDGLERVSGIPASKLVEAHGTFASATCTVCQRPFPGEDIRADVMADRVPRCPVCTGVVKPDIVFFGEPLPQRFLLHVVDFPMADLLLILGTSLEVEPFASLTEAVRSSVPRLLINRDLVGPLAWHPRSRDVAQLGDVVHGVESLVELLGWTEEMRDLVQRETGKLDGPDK
The experiment in a line: biochemical.
Description: Inhibition of catalytically active human SIRT3 (102 to 399 amino acids) expressed in Escherichia coli BL21 (DE3) cells using fluorogenic 7-amino-4-methylcoumarin (AMC)-labeled peptide by fluorescence assay

The test system of the next data set is DU-145. The experiment in a line: cells. Conditions: Homo sapiens, DU-145, 48 h.
A short description of data set [4]: Apparent permeability from basolateral to apical side in MDCK2 cells at 25 uM incubated for 15 to 180 mins by HPLC method. The class given is ADME, cell-based, Canis lupus familiaris, MDCK-II. Conditions: dog, MDCK.
The nature of data set [5]: Apparent permeability from apical to basolateral side in MDCK2 cells at 25 uM incubated for 15 to 180 mins by HPLC method. The class given is ADME, cell-based, Canis lupus familiaris, MDCK-II. The note with it: dog, MDCK.
For a further data set, the system named is MCF7. The experiment in a line: cells. The note with it: Homo sapiens, MCF7, 48 h.
In a further data set the test system is K562. The experiment in a line: cells. Conditions: Homo sapiens, K562, 48 h.

Description for DU-145: Cytotoxicity against human DU145 cells assessed as reduction in cell growth incubated for 48 hrs by alamar blue assay
Description for K562: Cytotoxicity against human K562 cells assessed as reduction in cell growth incubated for 48 hrs by alamar blue assay
Description for MCF7: Cytotoxicity against human MCF7 cells assessed as reduction in cell growth incubated for 48 hrs by alamar blue assay

Regarding `Cc1ccc(C(=O)Nc2cccc3cc(Oc4cncc(C(N)=O)c4)ccc23)cc1[N+](=O)[O-]`, the figures for the IC50 in data set [1], in data set [2] and in data set [3] were 0.788 µM, 0.869 µM and 4.37 µM, respectively.
Take `NC(=O)c1cncc(Oc2cccc3c(NC(=O)c4ccccc4)cccc23)c1`: the values for the CC50 in the data set with DU-145, in the data set on MCF7 and with K562 were 33.3 µM, 30.6 µM and 26.2 µM, respectively. In addition, the Papp B→A at 25 µM in data set [4] worked out at 4.35 ×10⁻⁶ cm/s. Further, the IC50 in data set [2] turned out to be 0.0483 µM. Moreover, in data set [5], the Papp A→B at 25 µM came out at 3.84 ×10⁻⁶ cm/s.
`NC(=O)c1cncc(Nc2cccc3ccccc23)c1`: the values for the IC50 in data set [1], in data set [2] and in data set [3] were 40.9 µM, 9.7 µM and 9 µM, respectively.
Turning to `NC(=O)c1cncc(Oc2cccc3ccccc23)c1`, the IC50 in data set [1] was determined as 4.89 µM; in data set [2], 7.57 µM.
Taken in the same sequence, the figures for `NC(=O)c1cncc(Sc2cccc3ccccc23)c1` were 30.3 µM and 9.8 µM.
Taken in the same sequence, the figures for `NC(=O)c1cncc(Oc2cccc3c(NC(=O)c4cccnc4)cccc23)c1` were 70.7 µM and 0.558 µM.
As to `NC(=O)c1cncc(Oc2ccc3ccccc3c2)c1`, the IC50 is 13.5 µM in data set [1], 6.29 µM in data set [2] and 2.14 µM in data set [3].
For `NC(=O)c1cncc(Sc2ccc3ccccc3c2)c1`, the IC50 in data set [1] came out at 26.9 µM; in data set [2], 12.1 µM.
On to `NC(=O)c1cncc(Nc2ccc3ccccc3c2)c1`, for which the IC50 in data set [1] was 33.6 µM; in data set [2], 4.3 µM.
